In publication doi:10.1101/2021.04.08.439011v1 (biorxiv, 2021):
Read-outs that look alike come from different tables or passages of the source.

Key:
PLK4 = PLK4 (Homo sapiens, UniProt O00444); settings: 1 µM; binder
IGF1R = IGF1R (Homo sapiens, UniProt P08069); settings: 1 µM; binder
ACVR2A = ACVR2A (Homo sapiens, UniProt P27037); settings: 1 µM; binder
ULK1 = ULK1 (Homo sapiens, UniProt O75385); settings: 1 µM; binder
DAPK2 = DAPK2 (Homo sapiens, UniProt Q9UIK4); settings: 1 µM; binder
FLT3(D835H) = FLT3(D835H) (Homo sapiens, UniProt P36888, D835H); settings: 1 µM; binder
SRPK3 = SRPK3 (Homo sapiens, UniProt Q9UPE1); settings: 1 µM; binder
CSNK1A1L = CSNK1A1L (Homo sapiens, UniProt Q8N752); settings: 1 µM; binder
ROCK1 = ROCK1 (Homo sapiens, UniProt Q13464); settings: 1 µM; binder
TIE2 = TIE2 (Homo sapiens, UniProt Q02763); settings: 1 µM; binder
SYK = SYK (Homo sapiens, UniProt P43405); settings: 1 µM; binder
CLK2 = CLK2 (Homo sapiens, UniProt P49760); settings: 1 µM; binder
CLK2, sequence (P49760 whole entry): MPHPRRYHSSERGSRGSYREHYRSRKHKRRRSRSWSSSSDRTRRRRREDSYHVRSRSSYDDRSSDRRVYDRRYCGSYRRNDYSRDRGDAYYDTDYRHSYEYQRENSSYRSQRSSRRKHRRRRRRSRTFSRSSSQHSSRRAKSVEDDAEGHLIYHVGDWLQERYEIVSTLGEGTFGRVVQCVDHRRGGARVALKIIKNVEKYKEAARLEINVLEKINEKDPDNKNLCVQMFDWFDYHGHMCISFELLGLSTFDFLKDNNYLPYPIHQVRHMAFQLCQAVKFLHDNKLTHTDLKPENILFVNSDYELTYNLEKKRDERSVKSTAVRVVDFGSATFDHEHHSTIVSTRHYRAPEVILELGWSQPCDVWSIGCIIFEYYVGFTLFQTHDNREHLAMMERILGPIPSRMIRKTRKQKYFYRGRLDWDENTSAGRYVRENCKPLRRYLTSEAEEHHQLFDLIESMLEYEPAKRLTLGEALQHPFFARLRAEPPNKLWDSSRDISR

MAP4K3 = MAP4K3 (Homo sapiens, UniProt Q8IVH8); settings: 1 µM; binder
CHEK2 = CHEK2 (Homo sapiens, UniProt O96017); settings: 1 µM; binder
KIT(L576P) = KIT(L576P) (Homo sapiens, UniProt P10721, L576P); settings: 1 µM; binder
PDGFRB = PDGFRB (Homo sapiens, UniProt P09619); settings: 1 µM; binder
ACVRL1 = ACVRL1 (Homo sapiens, UniProt P37023); settings: 1 µM; binder
CLK1 = CLK1 (Homo sapiens, UniProt P49759); settings: 1 µM; binder
IKK-beta = IKK-beta (Homo sapiens, UniProt O14920); settings: 1 µM; binder
IKK-beta, sequence (O14920 whole entry): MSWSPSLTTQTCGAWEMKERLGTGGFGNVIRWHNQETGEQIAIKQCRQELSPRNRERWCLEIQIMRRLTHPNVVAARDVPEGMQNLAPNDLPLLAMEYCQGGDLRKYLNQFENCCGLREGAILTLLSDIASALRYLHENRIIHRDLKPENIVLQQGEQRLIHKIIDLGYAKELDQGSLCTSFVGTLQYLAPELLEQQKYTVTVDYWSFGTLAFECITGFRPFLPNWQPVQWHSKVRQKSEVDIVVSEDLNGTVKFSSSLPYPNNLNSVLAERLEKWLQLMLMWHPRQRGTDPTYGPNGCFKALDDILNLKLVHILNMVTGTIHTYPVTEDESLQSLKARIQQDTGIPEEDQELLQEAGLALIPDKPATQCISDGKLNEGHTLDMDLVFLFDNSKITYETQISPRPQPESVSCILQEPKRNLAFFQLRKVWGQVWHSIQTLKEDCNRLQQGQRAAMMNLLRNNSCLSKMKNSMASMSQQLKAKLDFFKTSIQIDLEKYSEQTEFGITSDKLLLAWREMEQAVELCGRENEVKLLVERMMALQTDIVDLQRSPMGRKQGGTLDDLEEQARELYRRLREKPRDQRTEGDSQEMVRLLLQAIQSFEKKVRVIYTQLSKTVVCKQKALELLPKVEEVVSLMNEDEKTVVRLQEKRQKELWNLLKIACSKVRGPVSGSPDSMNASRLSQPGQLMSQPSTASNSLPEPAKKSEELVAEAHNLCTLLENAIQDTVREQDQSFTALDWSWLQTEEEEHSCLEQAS

ARK5 = ARK5 (Homo sapiens, UniProt O60285); settings: 1 µM; binder
DCAMKL1 = DCAMKL1 (Homo sapiens, UniProt O15075); settings: 1 µM; binder
TYK2 = TYK2 (Homo sapiens, UniProt P29597); settings: binder
TYK2, sequence (P29597 whole entry): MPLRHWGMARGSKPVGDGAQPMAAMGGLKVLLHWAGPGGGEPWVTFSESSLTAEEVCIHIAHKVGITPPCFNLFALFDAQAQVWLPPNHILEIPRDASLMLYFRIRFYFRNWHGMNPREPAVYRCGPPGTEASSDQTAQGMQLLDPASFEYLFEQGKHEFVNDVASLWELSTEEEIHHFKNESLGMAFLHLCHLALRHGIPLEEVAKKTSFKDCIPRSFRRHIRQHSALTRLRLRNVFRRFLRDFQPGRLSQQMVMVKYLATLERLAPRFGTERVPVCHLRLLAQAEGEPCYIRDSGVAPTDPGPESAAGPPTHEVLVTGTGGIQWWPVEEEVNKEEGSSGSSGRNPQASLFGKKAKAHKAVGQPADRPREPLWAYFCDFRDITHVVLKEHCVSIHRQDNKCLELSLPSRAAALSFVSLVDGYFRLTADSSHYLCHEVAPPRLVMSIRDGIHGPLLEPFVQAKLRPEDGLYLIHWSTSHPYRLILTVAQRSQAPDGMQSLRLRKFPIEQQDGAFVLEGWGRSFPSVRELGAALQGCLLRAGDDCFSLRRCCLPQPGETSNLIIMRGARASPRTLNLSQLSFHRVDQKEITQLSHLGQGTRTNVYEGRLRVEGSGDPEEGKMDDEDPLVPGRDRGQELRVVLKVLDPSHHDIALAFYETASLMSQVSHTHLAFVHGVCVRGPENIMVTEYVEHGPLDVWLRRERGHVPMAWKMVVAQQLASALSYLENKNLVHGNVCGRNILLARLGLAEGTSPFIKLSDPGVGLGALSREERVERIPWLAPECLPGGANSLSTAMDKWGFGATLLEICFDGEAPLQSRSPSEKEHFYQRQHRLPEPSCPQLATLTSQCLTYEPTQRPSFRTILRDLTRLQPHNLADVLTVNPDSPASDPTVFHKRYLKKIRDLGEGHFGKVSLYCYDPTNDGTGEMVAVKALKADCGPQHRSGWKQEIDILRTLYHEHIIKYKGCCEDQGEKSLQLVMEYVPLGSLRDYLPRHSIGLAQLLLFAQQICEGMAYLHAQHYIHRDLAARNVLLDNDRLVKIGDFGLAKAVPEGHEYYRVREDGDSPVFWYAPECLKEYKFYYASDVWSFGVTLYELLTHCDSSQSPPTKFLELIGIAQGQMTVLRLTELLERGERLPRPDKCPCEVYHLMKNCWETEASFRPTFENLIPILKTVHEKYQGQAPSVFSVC

MAPKAPK2 = MAPKAPK2 (Homo sapiens, UniProt P49137); settings: 1 µM; binder
FAK = FAK (Homo sapiens, UniProt Q05397); settings: 1 µM; binder
NEK7 = NEK7 (Homo sapiens, UniProt Q8TDX7); settings: 1 µM; binder
NEK7, sequence (Q8TDX7 whole entry): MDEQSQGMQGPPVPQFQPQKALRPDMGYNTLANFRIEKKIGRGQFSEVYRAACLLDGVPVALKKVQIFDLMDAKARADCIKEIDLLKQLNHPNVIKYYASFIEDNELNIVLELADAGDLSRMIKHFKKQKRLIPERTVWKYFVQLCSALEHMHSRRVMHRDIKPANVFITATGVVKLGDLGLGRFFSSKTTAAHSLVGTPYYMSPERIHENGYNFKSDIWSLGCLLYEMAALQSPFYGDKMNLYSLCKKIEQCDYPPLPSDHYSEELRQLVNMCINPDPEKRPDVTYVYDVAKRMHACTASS

PKAC-beta = PKAC-beta (Homo sapiens, UniProt P22694); settings: 1 µM; binder
RET = RET (Homo sapiens, UniProt P07949); settings: 1 µM; binder
CDK2 = CDK2 (Homo sapiens, UniProt P24941); settings: 1 µM; binder
KIT(V559D,T670I) = KIT(V559D,T670I) (Homo sapiens, UniProt P10721, T670I/V559D); settings: 1 µM; binder
MELK = MELK (Homo sapiens, UniProt Q14680); settings: 1 µM; binder
MELK, sequence (Q14680 whole entry): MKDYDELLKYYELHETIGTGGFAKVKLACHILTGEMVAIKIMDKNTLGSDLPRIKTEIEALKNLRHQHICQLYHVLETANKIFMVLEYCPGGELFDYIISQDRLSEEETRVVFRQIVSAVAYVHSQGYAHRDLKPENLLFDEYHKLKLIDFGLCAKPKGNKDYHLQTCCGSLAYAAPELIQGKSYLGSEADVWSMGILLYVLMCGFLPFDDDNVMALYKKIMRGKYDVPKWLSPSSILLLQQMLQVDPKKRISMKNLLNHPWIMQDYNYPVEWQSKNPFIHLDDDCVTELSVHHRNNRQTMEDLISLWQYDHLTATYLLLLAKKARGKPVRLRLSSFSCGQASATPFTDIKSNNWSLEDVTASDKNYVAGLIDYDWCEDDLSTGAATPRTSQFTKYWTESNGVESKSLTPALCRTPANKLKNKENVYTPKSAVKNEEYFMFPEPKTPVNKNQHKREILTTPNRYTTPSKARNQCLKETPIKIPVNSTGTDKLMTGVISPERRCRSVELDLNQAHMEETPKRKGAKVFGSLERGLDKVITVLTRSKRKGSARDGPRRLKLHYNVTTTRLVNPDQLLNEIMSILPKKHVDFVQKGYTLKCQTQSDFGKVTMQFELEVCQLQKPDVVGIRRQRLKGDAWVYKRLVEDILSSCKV

IGF1R, sequence (P08069 whole entry): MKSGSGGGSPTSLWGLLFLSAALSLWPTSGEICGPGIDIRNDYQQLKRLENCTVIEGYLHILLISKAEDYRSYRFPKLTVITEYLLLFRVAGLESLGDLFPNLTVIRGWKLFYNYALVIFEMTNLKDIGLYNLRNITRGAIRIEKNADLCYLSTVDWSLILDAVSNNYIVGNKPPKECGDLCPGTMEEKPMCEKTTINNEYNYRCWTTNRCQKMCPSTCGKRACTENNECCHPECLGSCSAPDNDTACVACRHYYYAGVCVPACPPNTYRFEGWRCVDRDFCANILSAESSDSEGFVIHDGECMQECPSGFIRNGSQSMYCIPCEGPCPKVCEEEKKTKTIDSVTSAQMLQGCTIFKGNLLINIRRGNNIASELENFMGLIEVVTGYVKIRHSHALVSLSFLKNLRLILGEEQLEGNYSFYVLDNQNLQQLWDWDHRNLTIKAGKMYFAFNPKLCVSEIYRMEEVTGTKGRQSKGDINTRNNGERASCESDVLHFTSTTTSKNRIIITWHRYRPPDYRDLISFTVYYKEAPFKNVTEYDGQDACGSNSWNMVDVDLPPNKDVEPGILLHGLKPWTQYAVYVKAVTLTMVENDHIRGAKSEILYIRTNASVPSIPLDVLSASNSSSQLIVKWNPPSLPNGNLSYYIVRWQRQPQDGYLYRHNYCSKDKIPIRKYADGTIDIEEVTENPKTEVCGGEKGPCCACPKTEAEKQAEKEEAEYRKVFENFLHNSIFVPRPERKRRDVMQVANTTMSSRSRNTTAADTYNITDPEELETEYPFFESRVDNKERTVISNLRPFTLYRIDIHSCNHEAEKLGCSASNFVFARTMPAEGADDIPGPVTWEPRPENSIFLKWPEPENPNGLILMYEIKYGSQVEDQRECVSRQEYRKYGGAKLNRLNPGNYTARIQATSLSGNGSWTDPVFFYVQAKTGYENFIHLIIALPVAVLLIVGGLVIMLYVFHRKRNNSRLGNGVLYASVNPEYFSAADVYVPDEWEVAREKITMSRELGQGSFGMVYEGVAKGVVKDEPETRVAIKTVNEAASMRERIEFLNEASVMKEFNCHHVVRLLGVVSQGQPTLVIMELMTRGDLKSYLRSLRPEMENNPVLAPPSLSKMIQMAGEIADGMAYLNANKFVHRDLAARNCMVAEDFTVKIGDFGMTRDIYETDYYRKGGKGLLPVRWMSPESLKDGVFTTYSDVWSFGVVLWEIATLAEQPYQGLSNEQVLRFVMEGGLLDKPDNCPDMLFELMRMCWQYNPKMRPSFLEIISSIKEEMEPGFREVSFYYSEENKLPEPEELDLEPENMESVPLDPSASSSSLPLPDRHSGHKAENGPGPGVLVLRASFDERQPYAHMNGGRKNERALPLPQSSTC

CNc1ncc2cc(-c3ccc(-c4cccc(C)n4)cc3Cl)c(=O)n(C[C@H]3OC[C@H](N)CO3)c2n1 [compound 6, G-5555]
Percent Control (PLK4): 67% | Percent Control (IGF1R): 100% | Percent Control (ACVR2A): 100% | Percent Control (ULK1): 85% | Percent Control (DAPK2): 100% | Percent Control (FLT3(D835H)): 99% | Percent Control (SRPK3): 100% | Percent Control (CSNK1A1L): 100% | Percent Control (ROCK1): 100% | Percent Control (TIE2): 52% | Percent Control (SYK): 100% | Percent Control (CLK2): 100% | Percent Control (MAP4K3): 23% | Percent Control (CHEK2): 100% | Percent Control (KIT(L576P)): 100% | Percent Control (PDGFRB): 84% | Percent Control (ACVRL1): 100% | Percent Control (CLK1): 100% | Percent Control (IKK-beta): 80% | Percent Control (ARK5): 24% | Percent Control (DCAMKL1): 79% | Percent Control (TYK2; JH1 domain catalytic): 74% | Percent Control (TYK2; JH2 domain pseudokinase, 1 µM): 98% | Percent Control (MAPKAPK2): 100% | Percent Control (FAK): 100% | Percent Control (NEK7): 100% | Percent Control (PKAC-beta): 95% | Percent Control (RET): 94% | Percent Control (CDK2): 100% | Percent Control (KIT(V559D,T670I)): 100% | Percent Control (MELK): 47%
